Measurements reported in patent US12377104B1, “Methods for treating a fatty liver disease” (Madrigal Pharmaceuticals, Inc., priority 2024, dated 2025).

Tested on: NASH patients
Experiment: MAESTRO-NASH: efficacy by baseline body weight and BMI
Assay type: in vivo, human
Details: for ≥30% Reduction in MRI-PDFF at Week 52, Assessment (%) / ≥120% Increase in SHBG at Week 52, Assessment (%): post hoc
Procedure: In the MAESTRO-NASH study, randomization to 80 mg and 100 mg doses was equal across all body weights. Analyses were conducted to provide additional evidence of a relationship between resmetirom dose, baseline body weight and body mass index (BMI), and safety/efficacy readouts. […] The only variable that determined exposure to resmetirom in the NASH population was body weight. […] Study median body weight was 100 kg. […] et al. (2024). CAP was stable over time, both doses showing a similar durable response (FIG. 30B).

[1] = Week 52 Paired Biopsies, 80 mg, >100 kg
[2] = Week 52 Paired Biopsies, 80 mg, ≤100 kg
[3] = Week 52 Paired Biopsies, 100 mg, >100 kg
[4] = Week 52 Paired Biopsies, 100 mg, ≤100 kg
[5] = Week 52 Primary Population, 80 mg, >100 kg
[6] = Week 52 Primary Population, 80 mg, ≤100 kg
[7] = Week 52 Primary Population, 100 mg, >100 kg
[8] = Week 52 Primary Population, 100 mg, ≤100 kg

CC(C)c1cc(Oc2c(Cl)cc(-n3nc(C#N)c(=O)[nH]c3=O)cc2Cl)n[nH]c1=O [Resmetirom, 2-(3,5-dichloro-4-((5-isopropyl-6-oxo-1,6-dihydropyridazin-3-yl)oxy)phenyl)-3,5-dioxo-2,3,4,5-tetrahydro-1,2,4-triazine-6-carbonitrile] was tested, and the “Week 52 Paired Biopsies Consensus NASH Resolution Responder: number” value (100 mg, 80-<90 kg) was 16, the “Week 52 Paired Biopsies Consensus NASH Resolution Responder: percentage (in parentheses)” value (100 mg, 80-<90 kg) was “(39.0)” and the “≥30% reduction in MRI-PDFF at Week 52: number of patients” value (from here on “≥30% reduction … number of patients”) (100 mg, 80-<90 kg) was 30. For the same compound, the “≥30% reduction in MRI-PDFF at Week 52: percentage of patients (in parentheses)” value (100 mg, 80-<90 kg) was “(76.9)”, the “≥120% increase in SHBG at Week 52: number of patients” value (from here on “≥120% increase … number of patients”) (100 mg, 80-<90 kg) was 27 and the “≥120% increase in SHBG at Week 52: percentage of patients (in parentheses)” value (100 mg, 80-<90 kg) was “(62.8)”. For the same compound, the “Discontinued Study Prior to Week 52: number” value (100 mg, 90-<100 kg) was 15, the “Discontinued Study Prior to Week 52: percentage (in parentheses)” value (100 mg, 90-<100 kg) was “(25.4)” and the “Week 52 MITT Consensus Fibrosis Improvement Responder: number” value (100 mg, 90-<100 kg) was 12. For the same compound, the “Week 52 MITT Consensus Fibrosis Improvement Responder: percentage (in parentheses)” value (100 mg, 90-<100 kg) was “(20.3)”, the “Week 52 MITT Consensus NASH Resolution Responder: number” value (100 mg, 90-<100 kg) was 13 and the “Week 52 MITT Consensus NASH Resolution Responder: percentage (in parentheses)” value (100 mg, 90-<100 kg) was “(22.0)”. The “Week 52 Paired Biopsies Consensus Fibrosis Improvement Responder: number” value (100 mg, 90-<100 kg) was 12, the “Week 52 Paired Biopsies Consensus Fibrosis Improvement Responder: percentage (in parentheses)” value (100 mg, 90-<100 kg) was “(29.3)” and the “Week 52 Paired Biopsies Consensus NASH Resolution Responder: number” value (100 mg, 90-<100 kg) was 13. For the same compound, the “Week 52 Paired Biopsies Consensus NASH Resolution Responder: percentage (in parentheses)” value (100 mg, 90-<100 kg) was “(31.7)”, the “≥30% reduction … number of patients” value (100 mg, 90-<100 kg) was 24 and the “≥30% reduction in MRI-PDFF at Week 52: percentage of patients (in parentheses)” value (100 mg, 90-<100 kg) was “(70.6)”. The “≥120% increase … number of patients” value (100 mg, 90-<100 kg) was 28, the “≥120% increase in SHBG at Week 52: percentage of patients (in parentheses)” value (100 mg, 90-<100 kg) was “(63.6)” and the “Discontinued Study Prior to Week 52: number” value (100 mg, 100-<110 kg) was 9. The “Discontinued Study Prior to Week 52: percentage (in parentheses)” value (100 mg, 100-<110 kg) was “(17.6)”, the “Week 52 MITT Consensus Fibrosis Improvement Responder: number” value (100 mg, 100-<110 kg) was 14 and the “Week 52 MITT Consensus Fibrosis Improvement Responder: percentage (in parentheses)” value (100 mg, 100-<110 kg) was “(27.5)”. The “Week 52 MITT Consensus NASH Resolution Responder: number” value (100 mg, 100-<110 kg) was 16, the “Week 52 MITT Consensus NASH Resolution Responder: percentage (in parentheses)” value (100 mg, 100-<110 kg) was “(31.4)” and the “Week 52 Paired Biopsies Consensus Fibrosis Improvement Responder: number” value (100 mg, 100-<110 kg) was 14. The “Week 52 Paired Biopsies Consensus Fibrosis Improvement Responder: percentage (in parentheses)” value (100 mg, 100-<110 kg) was “(35.0)”, the “Week 52 Paired Biopsies Consensus NASH Resolution Responder: number” value (100 mg, 100-<110 kg) was 16 and the “Week 52 Paired Biopsies Consensus NASH Resolution Responder: percentage (in parentheses)” value (100 mg, 100-<110 kg) was “(40.0)”. The “≥30% reduction … number of patients” value (100 mg, 100-<110 kg) was 29, the “≥30% reduction in MRI-PDFF at Week 52: percentage of patients (in parentheses)” value (100 mg, 100-<110 kg) was “(70.7)” and the “≥120% increase … number of patients” value (100 mg, 100-<110 kg) was 27. For the same compound, the “≥120% increase in SHBG at Week 52: percentage of patients (in parentheses)” value (100 mg, 100-<110 kg) was “(62.8)”, the “Discontinued Study Prior to Week 52: number” value (100 mg, <80 kg) was 12 and the “Discontinued Study Prior to Week 52: percentage (in parentheses)” value (100 mg, <80 kg) was “(21.4)”. The “Week 52 MITT Consensus Fibrosis Improvement Responder: number” value (100 mg, <80 kg) was 16, the “Week 52 MITT Consensus Fibrosis Improvement Responder: percentage (in parentheses)” value (100 mg, <80 kg) was “(28.6)” and the “Week 52 MITT Consensus NASH Resolution Responder: number” value (100 mg, <80 kg) was 14. For the same compound, the “Week 52 MITT Consensus NASH Resolution Responder: percentage (in parentheses)” value (100 mg, <80 kg) was “(25.0)”, the “Week 52 Paired Biopsies Consensus Fibrosis Improvement Responder: number” value (100 mg, <80 kg) was 16 and the “Week 52 Paired Biopsies Consensus Fibrosis Improvement Responder: percentage (in parentheses)” value (100 mg, <80 kg) was “(40.0)”. For the same compound, the “Week 52 Paired Biopsies Consensus NASH Resolution Responder: number” value (100 mg, <80 kg) was 14, the “Week 52 Paired Biopsies Consensus NASH Resolution Responder: percentage (in parentheses)” value (100 mg, <80 kg) was “(35.0)” and the “≥30% reduction … number of patients” value (100 mg, <80 kg) was 24. The “≥30% reduction in MRI-PDFF at Week 52: percentage of patients (in parentheses)” value (100 mg, <80 kg) was “(64.9)”, the “≥120% increase … number of patients” value (100 mg, <80 kg) was 30 and the “≥120% increase in SHBG at Week 52: percentage of patients (in parentheses)” value (100 mg, <80 kg) was “(68.2)”. For the same compound, the “≥30% Reduction in MRI-PDFF at Week 52, Assessment (%)” value (100 mg, body weight >100 kg) was 72.5%, the “≥120% Increase in SHBG at Week 52, Assessment (%)” value (100 mg, body weight >100 kg) was 55.0% and the “≥30% Reduction in MRI-PDFF at Week 52, Assessment (%)” value (100 mg, body weight ≤100 kg) was 71.7%. For the same compound, the “≥120% Increase in SHBG at Week 52, Assessment (%)” value (100 mg, body weight ≤100 kg) was 64.2%, the “Discontinued Study Prior to Week 52: number” value (100 mg, ≥110 kg) was 18 and the “Discontinued Study Prior to Week 52: percentage (in parentheses)” value (100 mg, ≥110 kg) was “(16.7)”. For the same compound, the “Week 52 MITT Consensus Fibrosis Improvement Responder: number” value (100 mg, ≥110 kg) was 27, the “Week 52 MITT Consensus Fibrosis Improvement Responder: percentage (in parentheses)” value (100 mg, ≥110 kg) was “(25.0)” and the “Week 52 MITT Consensus NASH Resolution Responder: number” value (100 mg, ≥110 kg) was 30. The “Week 52 MITT Consensus NASH Resolution Responder: percentage (in parentheses)” value (100 mg, ≥110 kg) was “(27.8)”, the “Week 52 Paired Biopsies Consensus Fibrosis Improvement Responder: number” value (100 mg, ≥110 kg) was 27 and the “Week 52 Paired Biopsies Consensus Fibrosis Improvement Responder: percentage (in parentheses)” value (100 mg, ≥110 kg) was “(31.4)”. The “Week 52 Paired Biopsies Consensus NASH Resolution Responder: number” value (100 mg, ≥110 kg) was 30, the “Week 52 Paired Biopsies Consensus NASH Resolution Responder: percentage (in parentheses)” value (100 mg, ≥110 kg) was “(34.9)” and the “≥30% reduction … number of patients” value (100 mg, ≥110 kg) was 53. For the same compound, the “≥30% reduction in MRI-PDFF at Week 52: percentage of patients (in parentheses)” value (100 mg, ≥110 kg) was “(74.6)”, the “≥120% increase … number of patients” value (100 mg, ≥110 kg) was 45 and the “≥120% increase in SHBG at Week 52: percentage of patients (in parentheses)” value (100 mg, ≥110 kg) was “(50.6)”. For the same compound, the “patients with worsening of VCTE” value (VCTE responder analyses at 1-3 years) was “less than 10%”, the “Consensus Fibrosis Improvement, Assessment (%)” value [1] was 22.5% and the “Consensus NASH Resolution, Assessment (%)” value [1] was 27.0%. For the same compound, the “Consensus Fibrosis Improvement, Assessment (%)” value [2] was 35.4%, the “Consensus NASH Resolution, Assessment (%)” value [2] was 32.0% and the “Consensus Fibrosis Improvement, Assessment (%)” value [3] was 32.5%. The “Consensus NASH Resolution, Assessment (%)” value [3] was 35.8%, the “Consensus Fibrosis Improvement, Assessment (%)” value [4] was 33.6% and the “Consensus NASH Resolution, Assessment (%)” value [4] was 36.0%. The “Consensus Fibrosis Improvement, Assessment (%)” value [5] was 17.4%, the “Consensus NASH Resolution, Assessment (%)” value [5] was 20.8% and the “Consensus Fibrosis Improvement, Assessment (%)” value [6] was 29.2%. The “Consensus NASH Resolution, Assessment (%)” value [6] was 26.4%, the “Consensus Fibrosis Improvement, Assessment (%)” value [7] was 25.6% and the “Consensus NASH Resolution, Assessment (%)” value [7] was 28.2%. For the same compound, the “Consensus Fibrosis Improvement, Assessment (%)” value [8] was 25.1% and the “Consensus NASH Resolution, Assessment (%)” value [8] was 26.9%.
